Patent US10662195B2, “Protein kinase conjugates and inhibitors” (Celgene Avilomics Research, Inc., priority 2009, dated 2020)
pIC50: −log10 of the molar value.

Key:
[1] = target: KDR (Homo sapiens, UniProt P35968); assay: Mass spectral analysis of tryptic digest of KDR after incubation with compound; assay type: binding; conditions: KDR 40 pmols, compound 395 pmols, 3 hrs, MALDI
Experimental: KDR kinase (40 pmols) was incubated with II-2 (395 pmols) for 3 hrs at 10× access prior to tryptic digestion. Iodoacetamide was used as the alkylating agent after compound incubation. For tryptic digests a 5 ul aliquot (6.7 pmols) was diluted with 10 ul of 0.1% TFA prior to micro C18 Zip Tipping directly onto the MALDI target using alpha cyano-4-hydroxy cinnamic acid as the matrix (5 mg/ml in 0.1% TFA:Acetonitrile 50:50).
For tryptic digests the instrument was set in Reflectron mode with a pulsed extraction setting of 1800. Calibration was done using the Laser Biolabs Pep Mix standard (1046.54, 1296.69, 1672.92, 2093.09, 2465.20). For CID/PSD analysis the peptide was selected using cursors to set ion gate timing and fragmentation occurred at a laser power about 20% higher and He was used as the collision gas for CID. Calibration for fragments was done using the P14R fragmentation calibration for the Curved field Reflectron.

[2] = target: BTK (Homo sapiens, UniProt Q06187); assay: Omnia assay for potency assessment against BTK; assay type: biochemical; conditions: 30 min pre-incubation; read-out: IC50_APP BTK
Description: B. Omnia Assay Protocol for Potency Assessment Against BTK
Below describes the protocol using EGFR-WT and EGFR-T790M/L858R and the protocol BTK-optimized reagent conditions then follow.
The mechanics of the assay platform are best described by the vendor (Invitrogen, Carlsbad, Calif.) on their website at the following URL: http://www.invitrogen.com/content.cfm?pageid=11338 or http://www.invitrogen.com/site/us/en/home/Products-and-Services/Applications/Drug-Discovery/Target-and-Lead-Identification-and-Validation/KinaseBiology/KB-Misc/Biochemical-Assays/Omnia-Kinase-Assays.html.
Briefly, 10× stocks of EGFR-WT (PV3872) from Invitrogen and EGFR-T790M/L858R (40350) from BPS Bioscience, San Diego, Calif., 1.13×ATP (AS001A) and appropriate Tyr-Sox conjugated peptide substrates (KCZ1001) were prepared in 1× kinase reaction buffer consisting of 20 mM Tris, pH 7.5, 5 mM MgCl2, 1 mM EGTA, 5 mM β-glycerophosphate, 5% glycerol (10× stock, KB002A) and 0.2 mM DTT (DS001A). 5 μL of each enzyme were pre-incubated in a Corning (#3574) 384-well, white, non-binding surface microtiter plate (Corning, N.Y.) for 30 min. at 27° C. with a 0.5 μL volume of 50% DMSO and serially diluted compounds prepared in 50% DMSO. Kinase reactions were started with the addition of 45 μL of the ATP/Tyr-Sox peptide substrate mix and monitored every 30-90 seconds for 60 minutes at λex360/λem485 in a Synergy^4 plate reader from BioTek (Winooski, Vt.). At the conclusion of each assay, progress curves from each well were examined for linear reaction kinetics and fit statistics (R^2, 95% confidence interval, absolute sum of squares). Initial velocity (0 minutes to ˜30 minutes) from each reaction was determined from the slope of a plot of relative fluorescence units vs time (minutes) and then plotted against inhibitor concentration to estimate IC50 from log [Inhibitor] vs Response, Variable Slope model in GraphPad Prism from GraphPad Software (San Diego, Calif.).
The modified BTK-optimized reagent conditions for the above protocol are:
[BTK]=5 nM, [ATP]=[…], [Y5-Sox]=[…] (ATP KMapp˜[…]).
The reported IC50_APP and IC50 values are in units of nM.

KDR, sequence (P35968 20-1356): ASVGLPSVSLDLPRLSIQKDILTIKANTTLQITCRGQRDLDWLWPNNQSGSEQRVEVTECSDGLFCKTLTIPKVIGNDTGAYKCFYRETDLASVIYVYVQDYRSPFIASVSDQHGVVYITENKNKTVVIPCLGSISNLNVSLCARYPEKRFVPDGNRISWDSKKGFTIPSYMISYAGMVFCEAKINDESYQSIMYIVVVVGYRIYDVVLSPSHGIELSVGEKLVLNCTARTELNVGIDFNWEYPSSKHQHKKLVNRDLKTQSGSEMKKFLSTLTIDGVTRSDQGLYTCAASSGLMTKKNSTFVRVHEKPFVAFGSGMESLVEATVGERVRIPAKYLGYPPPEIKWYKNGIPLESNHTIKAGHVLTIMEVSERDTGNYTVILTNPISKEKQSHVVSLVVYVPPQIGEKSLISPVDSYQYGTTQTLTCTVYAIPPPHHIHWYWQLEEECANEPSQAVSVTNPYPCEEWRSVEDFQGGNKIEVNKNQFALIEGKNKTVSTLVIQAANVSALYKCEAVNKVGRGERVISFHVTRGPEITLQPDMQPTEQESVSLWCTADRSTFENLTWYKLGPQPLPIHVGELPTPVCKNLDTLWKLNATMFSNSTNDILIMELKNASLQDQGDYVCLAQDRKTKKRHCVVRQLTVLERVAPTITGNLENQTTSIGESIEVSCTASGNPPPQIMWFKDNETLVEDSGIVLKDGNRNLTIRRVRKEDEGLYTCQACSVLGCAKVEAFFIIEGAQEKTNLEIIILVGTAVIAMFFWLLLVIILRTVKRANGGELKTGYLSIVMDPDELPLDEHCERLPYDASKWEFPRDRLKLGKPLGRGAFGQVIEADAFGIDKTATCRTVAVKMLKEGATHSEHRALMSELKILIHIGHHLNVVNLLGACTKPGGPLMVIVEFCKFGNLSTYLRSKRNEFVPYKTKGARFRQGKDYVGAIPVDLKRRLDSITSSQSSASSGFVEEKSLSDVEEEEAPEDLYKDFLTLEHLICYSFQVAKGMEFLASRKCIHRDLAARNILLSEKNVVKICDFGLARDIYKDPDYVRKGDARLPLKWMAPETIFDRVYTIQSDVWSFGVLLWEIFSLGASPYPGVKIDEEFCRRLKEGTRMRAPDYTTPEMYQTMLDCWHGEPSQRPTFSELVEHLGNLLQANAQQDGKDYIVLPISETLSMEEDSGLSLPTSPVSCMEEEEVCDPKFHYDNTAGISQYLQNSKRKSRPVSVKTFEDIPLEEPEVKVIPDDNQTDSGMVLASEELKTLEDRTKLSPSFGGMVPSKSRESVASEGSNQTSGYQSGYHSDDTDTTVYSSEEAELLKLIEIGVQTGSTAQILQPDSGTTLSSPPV
BTK, sequence (Q06187 whole entry): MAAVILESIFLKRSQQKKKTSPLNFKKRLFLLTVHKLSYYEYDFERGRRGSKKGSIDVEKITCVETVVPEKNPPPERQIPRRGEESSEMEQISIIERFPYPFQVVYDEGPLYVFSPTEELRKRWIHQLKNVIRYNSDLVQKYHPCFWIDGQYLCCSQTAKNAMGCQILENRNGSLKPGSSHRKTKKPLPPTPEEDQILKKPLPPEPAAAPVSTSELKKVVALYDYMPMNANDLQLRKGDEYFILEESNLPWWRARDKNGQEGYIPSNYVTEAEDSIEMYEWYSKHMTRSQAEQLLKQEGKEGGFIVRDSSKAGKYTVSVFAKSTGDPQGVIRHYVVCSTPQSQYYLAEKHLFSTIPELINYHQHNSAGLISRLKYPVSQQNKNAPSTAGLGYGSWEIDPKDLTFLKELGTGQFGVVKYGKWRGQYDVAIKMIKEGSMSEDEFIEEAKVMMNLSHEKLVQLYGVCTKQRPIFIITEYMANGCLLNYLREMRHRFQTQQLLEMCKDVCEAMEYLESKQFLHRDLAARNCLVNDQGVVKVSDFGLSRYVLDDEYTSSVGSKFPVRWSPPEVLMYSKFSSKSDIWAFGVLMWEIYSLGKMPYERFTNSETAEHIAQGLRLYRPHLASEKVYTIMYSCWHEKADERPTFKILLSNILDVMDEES

For `C=CC(=O)N1CCC(Sc2nc(Nc3ncc(C#N)s3)cc(N3CCN(C)CC3)n2)CC1` [II-2, 2-(2-(1-Acryloylpiperidin-4-ylthio)-6-(4-methylpiperazin-1-yl)pyrimidin-4-ylamino)thiazole-5-carbonitrile], the “MH+ of compound-modified tryptic peptide (ICDFGLAR) of KDR” value [1] was 1364.63 and the pIC50 [2] was 9.24.
